Data: patent US4220755A, “Fortimicin B derivatives and process for production thereof” (Abbott Laboratories, priority 1976, dated 1980)
Converted amounts (≈) assume the structure as drawn. Read-outs that look alike come from different tables or passages of the source.

Experiments:
Bacillus subtilis KY4273 = assay: MIC, agar dilution method, pH 8.0; type: cell-based; conditions: pH 8.0; Bacillus subtilis KY4273; read-out: Minimum inhibition concentration (MIC), BS
Protocol: (§1) Measurement was carried out according to the agar dilution method, using a medium of pH 8.0, or the Japanese Antibiotic Medicament Standard, using a medium of pH 7.2 Units are in mcg/ml.
B.S.: Bacillus subtilis KY4273

[1] = test system: Shigella sonnei KY4281 ATCC9290; assay: MIC, agar dilution method, pH 8.0; type: cell-based; conditions: ATCC9290; pH 8.0; Shigella sonnei KY4281; read-out: Minimum inhibition concentration (MIC), SS
Protocol: as §1

[2] = test system: Proteus vulgaris KY4277 ATCC6897; assay: MIC, agar dilution method, pH 8.0; type: cell-based; conditions: ATCC6897; pH 8.0; Proteus vulgaris KY4277; read-out: Minimum inhibition concentration (MIC), PV
Protocol: as §1

[3] = test system: Eschericia coli KY4271 ATCC26; assay: MIC, agar dilution method, pH 8.0; type: cell-based; conditions: Escherichia coli, ATCC26; pH 8.0; E. coli KY4271; read-out: Minimum inhibition concentration (MIC), EC
Protocol: as §1
E.C.: Eschericia coli KY4271 ATCC26

[4] = test system: Escherichia coli R20 KY8349; assay: MIC, agar dilution method, pH 7.2; type: cell-based
Protocol: as §1
5: neomycin, producing phosphotransferase type I.

[5] = test system: Klebsiella pneumoniae KY4275 ATCC10031; assay: MIC, agar dilution method, pH 8.0; type: cell-based; conditions: ATCC10031; pH 8.0; Klebsiella pneumoniae KY4275; read-out: Minimum inhibition concentration (MIC), KP
Protocol: as §1
K.P.: Klebsiella pneumoniae KY4275 ATCC10031.

[6] = test system: Pseudomonas aeruginosa R5 KY8512; assay: MIC, agar dilution method, pH 7.2; type: cell-based
Protocol: as §1
6: neomycin, producing phosphotransferase type I and type II.

[7] = test system: Escherichia coli R18 KY8321; assay: MIC, agar dilution method, pH 7.2; type: cell-based; conditions: R18KY8321, E. coli R18 KY8321, 2**: gentamicin, producing adenylsynthetase and neomycin phosphotransferase type II, read-out: Minimum inhibition concentration (MIC)
Protocol: as §1
2: gentamicin, producing adenylsynthetase and neomycin phosphotransferase

Escherichia coli 76-2 = assay: MIC, agar dilution method, pH 7.2; type: cell-based
Protocol: as §1
(§2) **1: gentamicin, producing adenylsynthetase.

[8] = test system: Escherichia coli 57R/W677; assay: MIC, agar dilution method, pH 7.2; type: cell-based; conditions: 57R/W677, pH 7.2, read-out: Minimum inhibition concentration (MIC)
Protocol: as §1, §2

[9] = test system: Escherichia coli R12 Z-338; assay: MIC, agar dilution method, pH 7.2; type: cell-based; conditions: R12Z338, pH 7.2, E. coli R12 Z-338, 1**: gentamicin, producing adenylsynthetase, read-out: Minimum inhibition concentration (MIC)
Protocol: as §1, §2

[10] = test system: Klebsiella pneumoniae 3020 Y-60; assay: MIC, agar dilution method, pH 7.2; type: cell-based; conditions: 3020Y60; pH 7.2; Klebsiella pneumoniae 3020 Y-60; 1**: gentamicin, producing adenylsynthetase; read-out: Minimum inhibition concentration (MIC)
Protocol: as §1, §2

[11] = test system: Staphylococcus aureus KY4279 ATCC6538P; assay: MIC, agar dilution method, pH 8.0; type: cell-based; conditions: pH 8.0, Staphylococcus aureus KY4279, read-out: Minimum inhibition concentration (MIC), SA
Protocol: as §1
S.A.: Staphylococcus aureus KY4279 ATCC6538P

Eschericihia coli 3100 = assay: MIC, agar dilution method, pH 7.2; type: cell-based, Escherichia coli; conditions: Escherichia coli; pH 7.2; E. coli 3100; read-out: Minimum inhibition concentration (MIC)
Protocol: as §1

[12] = test system: Pseudomonas aeruginosa R4 KY8511; assay: MIC, agar dilution method, pH 7.2; type: cell-based; conditions: R4KY8511, pH 7.2, P. aeruginosa R4 KY8511, 4**: gentamicin, producing acetyltransferase type I, read-out: Minimum inhibition concentration (MIC)
Protocol: as §1
(§3) 4: gentamicin, producing acetyltransferase type I.

[13] = test system: Escherichia coli R19 KY8348; assay: MIC, agar dilution method, pH 7.2; type: cell-based; conditions: R19KY8348, pH 7.2, E. coli R19 KY8348, 4**: gentamicin, producing acetyltransferase type I, read-out: Minimum inhibition concentration (MIC)
Protocol: as §1, §3

[14] = test system: Salmonella typhosa KY4278 ATCC9992; assay: MIC, agar dilution method, pH 8.0; type: cell-based; conditions: Salmonella enterica, pH 8, read-out: Minimum inhibition concentration (MIC), ST
Protocol: as §1
S.T.: Salmonella typhosa KY4278 ATCC9992

Providencia sp 164 = assay: MIC, agar dilution method, pH 7.2; type: cell-based; conditions: pH 7.2; Providencia sp 164; 7**: gentamicin, producing acetyltransferase type II; read-out: Minimum inhibition concentration (MIC)
Protocol: as §1
7: gentamicin, producing acetyltransferase type II.

Escherichia coli NIHTC-2 = assay: MIC, agar dilution method, pH 7.2; type: cell-based
Protocol: as §1

[15] = test system: Staphylococcus aureus Smith (A); assay: MIC, agar dilution method, pH 7.2; type: cell-based; conditions: pH 7.2; Staphylococcus aureus Smith (A); read-out: Minimum inhibition concentration (MIC)
Protocol: as §1

[16] = test system: Eschericihia coli GN2411-5; assay: MIC, agar dilution method, pH 7.2; type: cell-based; conditions: Escherichia coli
Protocol: as §1

[17] = test system: Klebsiella pneumoniae KY4274; assay: MIC, agar dilution method, pH 7.2; type: cell-based
Protocol: as §1

[18] = test system: Pseudomonas aeruginosa BMH# 1; assay: MIC, agar dilution method, pH 7.2; type: cell-based
Protocol: as §1

Shigella sonnei ATCC9290 = assay: MIC, agar dilution method, pH 7.2; type: cell-based; conditions: read-out: Minimum inhibition concentration (MIC)
Protocol: as §1

Proteus vulgaris JJ = assay: MIC, agar dilution method, pH 7.2; type: cell-based
Protocol: as §1

[19] = test system: Staphylococcus aureus 209-P; assay: MIC, agar dilution method, pH 7.2; type: cell-based; conditions: pH 7.2; Staphylococcus aureus 209-P; read-out: Minimum inhibition concentration (MIC)
Protocol: as §1

[20] = test system: Salmonella enteritidis G-14; assay: MIC, agar dilution method, pH 7.2; type: cell-based; conditions: Salmonella enterica
Protocol: as §1

[21] = test system: Pseudomonas aeruginosa UCLA 4184; assay: MIC, agar dilution method, pH 7.2; type: cell-based; conditions: UCLA4184; pH 7.2; Pseudomonas aeruginosa UCLA 4184; read-out: Minimum inhibition concentration (MIC)
Protocol: as §1

SMILES | MIC (Bacillus subtilis KY4273) | MIC [1] | MIC [2] | MIC [3] | MIC [5] | MIC [7] | MIC [8] | MIC [9] | MIC [10] | MIC [11] | MIC (Eschericihia coli 3100) | MIC [12] | MIC [13] | MIC [14] | MIC (Providencia sp 164) | MIC [15] | MIC (Shigella sonnei ATCC9290) | MIC [19] | MIC [21] | further results
CO[C@H]1[C@@H](O)[C@H](N)[C@@H](O[C@H]2O[C@H]([C@H](C)N)CC[C@H]2N)[C@H](O)[C@@H]1N(C)C(=O)CNC(N)=O [Compound 3, 4-N-hydantoylfortimicin B, reference compound] | 0.32 µg/mL (≈ 0.713 µM) | 1.25 µg/mL (≈ 2.79 µM) | 0.63 µg/mL (≈ 1.4 µM) | 0.08 µg/mL (≈ 0.178 µM) | 0.63 µg/mL (≈ 1.4 µM) | 6.25 µg/mL (≈ 13.9 µM) | 25 µg/mL (≈ 55.7 µM) | 6.25 µg/mL (≈ 13.9 µM) | 100 µg/mL (≈ 223 µM) | 0.16 µg/mL (≈ 0.357 µM) | 12.5 µg/mL (≈ 27.9 µM) | > 100 µg/mL | > 100 µg/mL | 0.32 µg/mL (≈ 0.713 µM) | 100 µg/mL (≈ 223 µM) | 6.25 µg/mL (≈ 13.9 µM) | 25 µg/mL (≈ 55.7 µM) | 3.12 µg/mL (≈ 6.96 µM) | 50 µg/mL (≈ 111 µM) | MIC ([4]; R20KY8349, pH 7.2, E. coli R20 KY8349, 5**: neomycin, producing phosphotransferase type I, read-out: Minimum inhibition concentration (MIC)): 12.5 µg/mL (≈ 27.9 µM); MIC ([6]; R5KY8512, pH 7.2, P. aeruginosa R5 KY8512, 6**: neomycin, producing phosphotransferase type I and type II, read-out: Minimum inhibition concentration (MIC)): 50 µg/mL (≈ 111 µM); MIC (Escherichia coli 76-2; Escherichia coli, 762, pH 7.2, E. coli 76-2, 1**: gentamicin, producing adenylsynthetase, read-out: Minimum inhibition concentration (MIC)): 12.5 µg/mL (≈ 27.9 µM); MIC (Escherichia coli NIHTC-2; NIHTC2, pH 7.2, Escherichia coli NIHTC-2, read-out: Minimum inhibition concentration (MIC)): 12.5 µg/mL (≈ 27.9 µM); MIC ([16]; pH 7.2, E. coli GN2411-5, read-out: Minimum inhibition concentration (MIC)): 25 µg/mL (≈ 55.7 µM); MIC ([17]; pH 7.2, Klebsiella pneumoniae KY4274, read-out: Minimum inhibition concentration (MIC)): 12.5 µg/mL (≈ 27.9 µM); MIC ([18]; pH 7.2, Pseudomonas aeruginosa BMH# 1, read-out: Minimum inhibition concentration (MIC)): 100 µg/mL (≈ 223 µM); MIC (Proteus vulgaris JJ; pH 7.2, Proteus vulgaris JJ, read-out: Minimum inhibition concentration (MIC)): 12.5 µg/mL (≈ 27.9 µM); MIC ([20]; pH 7.2, Salmonella enteritidis G-14, read-out: Minimum inhibition concentration (MIC)): 25 µg/mL (≈ 55.7 µM)
CO[C@H]1[C@@H](O)[C@H](N)[C@@H](O[C@H]2O[C@H]([C@H](C)N)CC[C@H]2N)[C@H](O)[C@@H]1N(C)C[C@@H](O)CCN [Compound 27, 4-N-[(S)-4-amino-2-hydroxybutyl]fortimicin B] | 0.04 µg/mL (≈ 0.0918 µM) | 1.25 µg/mL (≈ 2.87 µM) | 0.32 µg/mL (≈ 0.735 µM) | 0.16 µg/mL (≈ 0.367 µM) | 0.32 µg/mL (≈ 0.735 µM) | 6.25 µg/mL (≈ 14.3 µM) | 12.5 µg/mL (≈ 28.7 µM) | 12.5 µg/mL (≈ 28.7 µM) | 12.5 µg/mL (≈ 28.7 µM) | 0.04 µg/mL (≈ 0.0918 µM) | 12.5 µg/mL (≈ 28.7 µM) | > 100 µg/mL | > 100 µg/mL | 0.16 µg/mL (≈ 0.367 µM) | 25 µg/mL (≈ 57.4 µM) | 0.4 µg/mL (≈ 0.918 µM) | 3.12 µg/mL (≈ 7.16 µM) | 0.4 µg/mL (≈ 0.918 µM) | 25 µg/mL (≈ 57.4 µM) | MIC ([4]; R20KY8349, pH 7.2, read-out: Minimum inhibition concentration (MIC)): 1.25 µg/mL (≈ 2.87 µM); MIC ([6]; R5KY8512, pH 7.2, read-out: Minimum inhibition concentration (MIC)): 6.25 µg/mL (≈ 14.3 µM); MIC (Escherichia coli 76-2; Escherichia coli, 762, pH 7.2, read-out: Minimum inhibition concentration (MIC)): 6.25 µg/mL (≈ 14.3 µM); MIC (Escherichia coli NIHTC-2; Escherichia coli, NIHTC2, pH 7.2, read-out: Minimum inhibition concentration (MIC)): 3.12 µg/mL (≈ 7.16 µM); MIC ([16]; GN2411, pH 7.2, read-out: Minimum inhibition concentration (MIC)): 6.25 µg/mL (≈ 14.3 µM); MIC ([17]; Klebsiella pneumoniae, KY4274, pH 7.2, read-out: Minimum inhibition concentration (MIC)): 3.12 µg/mL (≈ 7.16 µM); MIC ([18]; Pseudomonas aeruginosa, pH 7.2, read-out: Minimum inhibition concentration (MIC)): 6.25 µg/mL (≈ 14.3 µM); MIC (Proteus vulgaris JJ; Proteus vulgaris, pH 7.2, read-out: Minimum inhibition concentration (MIC)): 3.12 µg/mL (≈ 7.16 µM); MIC ([20]; ENTERITIDIS, pH 7.2, read-out: Minimum inhibition concentration (MIC)): 3.12 µg/mL (≈ 7.16 µM)
